Patent publication US7192943B2, “Cephem compounds” (Astellas Pharma Inc., priority 2003, dated 2007)
In brackets after ≈: the same amount, converted by molar mass.

tested on: Pseudomonas aeruginosa FP 1380; assay: In vitro antibacterial activity (MIC) by two-fold agar-plate dilution method; format: cell-based; conditions: FP1380; test strain Pseudomonas aeruginosa FP 1380; heart infusion agar, incubation at 37° C. for 20 hours
Description: Now in order to show the utility of the object compound [I], the test data on MIC (minimal inhibitory concentration) of a representative compound of this invention are shown in the following.
In vitro antibacterial activity was determined by the two-fold agar-plate dilution method as described below.
One loopful of an overnight culture of each test strain in Trypticase-soy broth (10^6 viable cells per ml) was streaked on heart infusion agar (HI-agar) containing graded concentrations of representative test compound, and the minimal inhibitory concentration (MIC) was expressed in μg/ml after incubation at 37° C. for 20 hours.

| Compound | MIC [µg/mL] |
| --- | --- |
| Cn1c(N)c(NC(=O)N(CCN)CCN)c[n+]1CC1=C(C(=O)O)N2C(=O)[C@@H](NC(=O)/C(=N\OC(C)(C)C(=O)O)c3nsc(N)n3)[C@H]2SC1.O=S(=O)([O-])O [Compound (b), 7β-[(Z)-2-(5-amino-1,2,4-thiadiazol-3-yl)-2-(1-carboxy-1-methylethoxyimino)acetamido]-3-{3-amino-4-({[bis(2-aminoethyl)amino]carbonyl}amino)-2-methyl-1-pyrazolio}methyl-3-cephem-4-carboxylic acid hydrogensulfate] | 1 |
| Cn1c(N)c(NC(=O)N(CCN)CCCN)c[n+]1CC1=C(C(=O)[O-])N2C(=O)[C@@H](NC(=O)/C(=N\OC(C)(C)C(=O)O)c3nsc(N)n3)[C@H]2SC1 [Compound (c), 7β-[(Z)-2-(5-amino-1,2,4-thiadiazol-3-yl)-2-(1-carboxy-1-methylethoxyimino)acetamido]-3-[3-amino-4-({[N-(2-aminoethyl)-N-(3-aminopropyl)amino]carbonyl}-amino)-2-methyl-1-pyrazolio]methyl-3-cephem-4-carboxylate] | 1 (≈ 1.38 µM) |
| Cn1c(N)c(NC(=O)N(CCN)CCN)c[n+]1CC1=C(C(=O)[O-])N2C(=O)[C@@H](NC(=O)/C(=N\OC(C)(C)C(=O)O)c3nsc(N)n3)[C@H]2SC1 [Compound (a), 7β-[(Z)-2-(5-amino-1,2,4-thiadiazol-3-yl)-2-(1-carboxy-1-methylethoxyimino)acetamido]-3-{3-amino-4-({[bis(2-aminoethyl)amino]carbonyl}amino)-2-methyl-1-pyrazolio}methyl-3-cephem-4-carboxylate] | 1 (≈ 1.41 µM) |
| CC(C)(O/N=C(\C(=O)N[C@@H]1C(=O)N2C(C(=O)[O-])=C(C[n+]3ccccc3)CS[C@H]12)c1csc(N)n1)C(=O)O [Ceftazidime, reference compound] | 128 (≈ 234 µM) |
| Cn1c(N)c(NC(=O)NC(CN)CN)c[n+]1CC1=C(C(=O)O)N2C(=O)[C@@H](NC(=O)/C(=N\OC(C)(C)C(=O)O)c3nsc(N)n3)[C@H]2SC1.O=S(=O)([O-])O [Compound (d), 7β-[(Z)-2-(5-amino-1,2,4-thiadiazol-3-yl)-2-(1-carboxy-1-methylethoxyimino)acetamido]-3-(3-amino-4-{3-[2-amino-1-(aminomethyl)ethyl]ureido}-2-methyl-1-pyrazolio)methyl-3-cephem-4-carboxylic acid hydrogensulfate] | 1 |
| Cn1c(N)c(NC(=O)CC(=O)NC(CN)CN)c[n+]1CC1=C(C(=O)[O-])N2C(=O)[C@@H](NC(=O)/C(=N\OC(C)(C)C(=O)O)c3nsc(N)n3)[C@H]2SC1 [Compound (e), 7β-[(Z)-2-(5-amino-1,2,4-thiadiazol-3-yl)-2-(1-carboxy-1-methylethoxyimino)acetamido]-3-{3-amino-4-[(3-{[2-amino-1-(aminomethyl)ethyl]amino}-3-oxopropanoyl)amino]-2-methyl-1-pyrazolio}methyl-3-cephem-4-carboxylate] | 1 (≈ 1.36 µM) |
